Literature values, collected in patent US5990317A, “2-(1H-4(5)-imidazoyl) cyclopropyl compounds” (Gliatech, Inc., priority 1998, dated 1999).
Read-outs that look alike come from different tables or passages of the source.

What was measured:
[1] = tested on: H3 receptor; details: rats; cited from earlier work
[2] = tested on: histamine; details: in vivo; cited from earlier work
[3] = tested on: electrically-induced convulsions; details: cited from earlier work
[4] = tested on: H3 receptor; details: cat; cited from earlier work
[5] = tested on: arousal EEG pattern; details: intraventricular, rabbits; cited from earlier work
[6] = tested on: spontaneous locomotor activity, grooming and exploratory behavior; details: intraventricular, saline and pentobarbital-treated rats; cited from earlier work

In the case of `S=C(NC1CCCCC1)N1CCC(c2cnc[nH]2)CC1` [thioperamide], the “slow wave and REM sleep” value [1] is given as “decrease slow wave and REM sleep”, the wakefulness [1] is given as “increase wakefulness” and the “synthesis and release of histamine” value [2] is given as “increase in synthesis and release of histamine”. The “durations of every convulsive phase” value ([3]; electrically-induced convulsions) was “significantly and dose-dependently decrease the durations of every convulsive phase”, the electroconvulsive threshold ([3]; in vivo) was “increase the electroconvulsive threshold” and the wakefulness [4] was “enhanced wakefulness in a dose-dependent fashion”.

In the case of `NCCc1c[nH]cn1` [histamine], the “arousal EEG pattern” value [5] is given as “induces the appearances of an arousal EEG pattern” and the “spontaneous locomotor activity, grooming, and exploratory behavior” value [6] is given as “increased spontaneous locomotor activity, grooming and exploratory behavior”.
